Assay results taken from patent US8815811B2, “Peptides and methods for their preparation and use” (Eli Lilly and Company, priority 2010, dated 2014).
Where no end group is shown, it is not given here. [ ]: non-standard residue; d: D form. 1Nal = N[C@@H](Cc1cccc2ccccc12)C(=O)O; Aib = CC(C)(N)C(=O)O

Test system: diet-induced obese Long Evans rats
Test: Effects on food intake, body weight, body composition and plasma lipids in DIO Long Evans rats
Format: in vivo
Experimental: Four to five months old male diet-induced obese Long Evans rats are used. Animals are individually housed in a temperature-controlled (24° C.) facility with a 12 hour light/dark cycle (lights on 22:00), and have free access to food (diet TD95217) and water. Animals are acclimated to the facility for at least 2 weeks. On day 0, body composition is determined by QNMR and rats are randomized to respective groups (n=6/group) based on body weight, % fat, and % lean mass. Compound is administered by subcutaneous injection on days 1, 4, 8, 11, and 15. […] After CO2 euthanasia, blood samples are taken by cardiac stick for analysis of exposure determination.

Aib^2, Aib^13, Nal^22, Aib^29, Cys^43(PEG20K), Cys^44 (PEG20K)-GIP (Y[Aib]EGTFTSDYSI[Aib]LDKIAQRA[1Nal]VQWLIA[Aib]KGKKQEWKHQITQC(PEG 20 kDa)C(PEG 20 kDa)-NH2) [Example 4]
total cholesterol (plasma) (10 nmol/Kg): 110 mg/dL | triglycerides (plasma) (10 nmol/Kg): 488.7 mg/dL | free fatty acids (plasma) (30 nmol/Kg): 0.82 mEq/L | total cholesterol (plasma) (30 nmol/Kg): 104 mg/dL | triglycerides (plasma) (30 nmol/Kg): 212.2 mg/dL | fat mass reduced (30 nmol/Kg over 16 days): 1.8% | lean mass increased (30 nmol/Kg over 16 days): 0.4% | fat mass reduced (100 nmol/Kg over 16 days): 3.2% | lean mass increased (100 nmol/Kg over 16 days): 1.8% | changes in body weight and body composition compared to vehicle-treated DIO rats (over 16 days): increasing the percentage of lean mass and decreasing the percentage of fat mass | amount of free fatty acids (versus vehicle): increased | amounts of plasma lipids, including triglycerides and total cholesterol (versus vehicle): lowered
